Our source for the IC50 and melting point values is patent US8076324B2, “Di(hetero)arylcyclohexane derivatives, their preparation, their use and pharmaceutical compositions comprising them” (Sanofi-Aventis, priority 2007, dated 2011).

Where a name gives a salt, the structure may show the parent alone.

The target in data set [1] is T1, myocardial ATP-sensitive potassium channel (SUR2A/Kir6.2) (UniProt Q61743+Q63563).
T1 construct: expressed in transfected cells
The data set is described as follows: Rubidium efflux test on HEK293 cells transfected with SUR2A and Kir6.2 (myocardial action). The format is cell-based, SUR2A from the rat, Kir6.2 from the mouse. Conditions: HEK293 cells transfected with SUR2A/Kir6.2; KATP channels opened by rilmakalim; 25 min incubation; read-out: IC50 values for the inhibition of the rubidium efflux. As for the experimental part:
1) Action on the SUR2A/Kir6.2 potassium channel (myocardial action) The action of the compounds on the ion transport through the myocardial ATP-sensitive potassium channel (SUR2A/Kir6.2) was determined in the rubidium efflux test system described below on human embryonic kidney cells HEK293 which were transfected with the components SUR2A and Kir6.2 (cf. Weyermann et al., Naunyn-Schmiedeberg's Arch. Pharmacol. 369, 374-381 (2004)).
The HEK293 cells were cultured at 37° C. in a humidified air atmosphere with 7% carbon dioxide in minimal essential medium with Earle's salts and L-glutamine (MEM, Gibco), which was supplemented with 10% fetal calf serum and zeozin (0.36 mg/ml) and geneticin (0.75 mg/ml). The transfection of the cells and the preparation of a cell line with stable expression of Kir6.2 from the mouse (accession number AF037313) and SUR2A from the rat (accession number D83598/L40624) were carried out as described in Giblin et al., J. Biol. Chem. 274, 22652-22659 (1999).
60 000 transfected cells per well were inoculated into a poly-D-lysine-coated 96-well microtiter plate (Greiner #650 201). After incubation for 24 h at 37° C., the cells were washed three times with buffer 1 (150 mM NaCl, 2 mM CaCl2, 0.8 mM NaH2PO4, 1 mM MgCl2, 5 mM glucose, 25 mM HEPES, pH=7.4). Subsequently, the buffer solution was replaced by 100 μl of rubidium loading buffer (buffer 1 with 5.4 mM RbCl) and the cells were incubated for a further 3 h at 37° C. The rubidium loading buffer was then removed by washing the cells three times with 200 μl each of potassium chloride wash buffer (buffer 1 with 5.4 mM KCl). After addition of the test substances (70 μl; dissolved in potassium chloride wash buffer with addition of DMSO), the KATP channels of the cells were opened by addition of 70 μl of rilmakalim (2 μM) (cf. Krause et al., Pflügers Arch. 429, 625-635 (1995)) and the cells were incubated at 37° C. for 25 min. Subsequently, the cell supernatants were transferred to a new 96-well microtiter plate and the cells were lyzed by addition of 200 μl of lysis buffer (buffer 1 with 1% Triton X-100). The concentrations of Rb^+ in the cell supernatant and in the cell lyzate were measured by means of atomic absorption spectroscopy using an Al 1200 apparatus (Aurora Instruments Ltd.).
The Rb^+ efflux rate was calculated as [Rb^+SN]/[Rb^+total], wherein [Rb^+SN] is the amount of Rb^+ in the cell supernatant and [Rb^+total] is the sum of the amounts of Rb^+ in the cell supernatant and cell lyzate. IC50 values for the inhibition of the rubidium efflux were calculated with the aid of the Hill equation.

T1 sequence (Q63563 whole entry): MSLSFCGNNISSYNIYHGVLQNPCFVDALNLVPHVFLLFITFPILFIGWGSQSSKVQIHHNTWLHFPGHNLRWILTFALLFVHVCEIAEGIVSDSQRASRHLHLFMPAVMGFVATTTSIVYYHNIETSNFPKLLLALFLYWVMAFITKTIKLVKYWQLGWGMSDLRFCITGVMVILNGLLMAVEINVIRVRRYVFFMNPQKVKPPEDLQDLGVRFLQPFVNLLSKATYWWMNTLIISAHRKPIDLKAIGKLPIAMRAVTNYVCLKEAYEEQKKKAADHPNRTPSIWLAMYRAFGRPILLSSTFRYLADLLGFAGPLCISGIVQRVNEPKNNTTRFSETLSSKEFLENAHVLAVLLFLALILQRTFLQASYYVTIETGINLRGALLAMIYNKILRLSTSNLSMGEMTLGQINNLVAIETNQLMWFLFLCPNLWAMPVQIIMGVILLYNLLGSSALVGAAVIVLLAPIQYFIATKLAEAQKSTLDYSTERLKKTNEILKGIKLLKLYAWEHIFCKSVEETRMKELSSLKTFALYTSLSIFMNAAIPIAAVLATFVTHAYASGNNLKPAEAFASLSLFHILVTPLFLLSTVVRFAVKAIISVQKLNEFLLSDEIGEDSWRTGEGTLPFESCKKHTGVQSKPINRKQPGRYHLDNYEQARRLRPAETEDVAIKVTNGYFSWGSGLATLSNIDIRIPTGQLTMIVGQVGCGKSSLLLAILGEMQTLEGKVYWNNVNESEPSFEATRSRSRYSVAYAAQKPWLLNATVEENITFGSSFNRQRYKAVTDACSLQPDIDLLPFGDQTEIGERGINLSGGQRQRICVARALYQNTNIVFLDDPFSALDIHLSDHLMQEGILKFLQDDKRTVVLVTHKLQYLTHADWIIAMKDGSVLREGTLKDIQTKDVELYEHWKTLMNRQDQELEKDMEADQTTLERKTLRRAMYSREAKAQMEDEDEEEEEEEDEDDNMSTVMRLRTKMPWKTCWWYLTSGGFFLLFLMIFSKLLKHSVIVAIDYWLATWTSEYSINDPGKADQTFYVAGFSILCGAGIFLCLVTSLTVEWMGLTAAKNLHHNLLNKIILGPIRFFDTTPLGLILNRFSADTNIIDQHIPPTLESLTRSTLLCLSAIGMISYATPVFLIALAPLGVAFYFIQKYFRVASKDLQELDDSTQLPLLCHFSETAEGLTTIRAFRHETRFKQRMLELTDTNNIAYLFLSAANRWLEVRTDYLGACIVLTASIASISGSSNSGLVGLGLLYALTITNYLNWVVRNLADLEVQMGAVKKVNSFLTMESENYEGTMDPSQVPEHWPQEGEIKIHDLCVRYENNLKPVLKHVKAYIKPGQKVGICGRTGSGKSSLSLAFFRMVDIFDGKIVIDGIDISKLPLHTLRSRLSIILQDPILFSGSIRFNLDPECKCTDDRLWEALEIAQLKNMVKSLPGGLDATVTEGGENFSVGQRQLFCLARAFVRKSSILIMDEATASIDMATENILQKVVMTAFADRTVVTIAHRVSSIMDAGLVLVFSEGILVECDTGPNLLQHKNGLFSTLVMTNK
T1 sequence (Q61743 whole entry): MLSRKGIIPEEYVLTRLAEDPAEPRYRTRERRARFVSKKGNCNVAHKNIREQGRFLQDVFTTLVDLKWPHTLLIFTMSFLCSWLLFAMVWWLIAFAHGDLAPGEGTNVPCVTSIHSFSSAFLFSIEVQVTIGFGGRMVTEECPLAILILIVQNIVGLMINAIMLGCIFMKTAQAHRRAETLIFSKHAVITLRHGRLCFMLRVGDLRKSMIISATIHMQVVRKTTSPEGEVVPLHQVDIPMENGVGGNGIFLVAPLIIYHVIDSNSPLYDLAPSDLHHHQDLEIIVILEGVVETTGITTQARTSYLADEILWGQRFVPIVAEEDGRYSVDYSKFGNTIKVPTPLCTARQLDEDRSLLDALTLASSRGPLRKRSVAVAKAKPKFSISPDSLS

As usually defined, the IC50 is the concentration at which inhibition is half-maximal. By melting point is commonly meant the temperature, or range, at which the solid turns liquid. As to `Cc1nc([C@]2(OCC3CC3)CC[C@](C(=O)O)(c3ccccc3)CC2)n(CC2CC2)c1C#N` [Example 419, Cis-4-(5-Cyano-1-cyclopropylmethyl-4-methyl-1H-imidazol-2-yl)-4-cyclopropylmethoxy-1-phenylcyclohexanecarboxylic Acid], the melting point stood at 228 °C. In data set [1], the IC50 is < 1 µM. Consider `CS(=O)(=O)c1cccc2c1nc([C@]1(OCC3CC3)CC[C@](C(=O)O)(c3ccccc3)CC1)n2CC1CC1`, for which the melting point came to 227 °C. The compound `Cc1nc([C@]2(OCC3CC3)CC[C@](C(=O)O)(c3ccccc3)CC2)n(CC2CC2)c1-c1ccccc1` [Example 426, Cis-4-Cyclopropylmethoxy-4-(1-cyclopropylmethyl-4-methyl-5-phenyl-1H-imidazol-2-yl)-1-phenylcyclohexanecarboxylic Acid] had a melting point of 218 °C. Further, the half-maximal inhibitory concentration (IC50) in data set [1] was < 1 µM. As to `Cc1c(Br)nc([C@]2(Oc3ccccc3)CC[C@](C(=O)O)(c3ccc(F)cc3)CC2)n1CC1CC1` [Example 403, Cis-4-(4-Bromo-1-cyclopropylmethyl-5-methyl-1H-imidazol-2-yl)-4-phenoxy-1-(4-fluorophenyl)cyclohexanecarboxylic Acid], the melting point amounted to 158 °C. Also, in data set [1], the half-inhibitory concentration (IC50) is < 1 µM.

Compound `Cc1nc([C@]2(OCC3CC3)CC[C@](C(=O)O)(c3ccc(F)cc3)CC2)n(CC2CC2)c1Br` [Example 354, Cis-4-(5-Bromo-1-cyclopropylmethyl-4-methyl-1H-imidazol-2-yl)-4-cyclopropylmethoxy-1-(4-fluorophenyl)cyclohexanecarboxylic Acid] registered a melting point of 190 °C. Besides, in data set [1], the IC50 is < 1 µM. `O=C(O)[C@]1(c2ccc(F)cc2)CC[C@](OCC2CC2)(c2ccc(F)cn2)CC1`: the melting point came out at 211 °C. `O=C(O)[C@]1(c2ccc(F)cc2)CC[C@](OCC2CC2)(c2cn(CC3CC3)c(-c3ccccc3)n2)CC1` [Example 432, Trans-4-Cyclopropylmethoxy-4-(1-cyclopropylmethyl-2-phenyl-1H-imidazol-4-yl)-1-(4-fluorophenyl)cyclohexanecarboxylic Acid] displayed a melting point of 209 °C. Besides, the IC50 in data set [1] is < 1 µM.

In the case of `Cc1nc([C@]2(OCC3CC3)CC[C@](C(=O)O)(c3ccccc3)CC2)n(CC2CC2)c1S(C)(=O)=O` (as salt: sulfonic acid salt), the melting point came to 206 °C.

In turn, `O=C(O)[C@]1(c2ccc(F)cc2)CC[C@](Oc2ncccn2)(c2ccc(F)cn2)CC1` returned a melting point of 159 °C. The compound `CS(=O)(=O)c1cccc(-c2nc([C@]3(Oc4ccccc4)CC[C@@](C(=O)O)(c4ccccc4)CC3)n(CC3CC3)n2)c1` [Example 463, Trans-4-[2-Cyclopropylmethyl-5-(3-methanesulfonylphenyl)-2H-[1,2,4]triazol-3-yl]-4-phenoxy-1-phenylcyclohexanecarboxylic Acid] returned a melting point of 198 °C. In addition, the half-maximal inhibitory concentration (IC50) in data set [1] is < 1 µM. In the same order, the values of `Cc1nc([C@]2(OCC3CC3)CC[C@](C(=O)O)(c3ccc(F)cc3)CC2)n(CC2CC2)c1Cl` [Example 363, Cis-4-(5-Chloro-1-cyclopropylmethyl-4-methyl-1H-imidazol-2-yl)-4-cyclopropylmethoxy-1-(4-fluorophenyl)cyclohexanecarboxylic Acid] are 184 °C and < 1 µM. For the compound `Cc1c(Br)nc([C@]2(OCCC(C)C)CC[C@](C(=O)O)(c3ccccc3)CC2)n1CC1CC1` [Example 374], the IC50 in data set [1] is < 1 µM. For `CCCOC1(c2cccc(S(C)(=O)=O)c2)CCC(C(=O)O)(c2ccccc2)CC1` (stereo not shown) [Example 168], the IC50 in data set [1] was < 1 µM. With `O=C(O)[C@]1(c2ccccc2)CC[C@](OCC2CC2)(c2cc(-c3ccccc3)ccn2)CC1` [Example 486, Trans-4-Cyclopropylmethoxy-1-phenyl-4-(4-phenylpyridin-2-yl)cyclohexanecarboxylic Acid], in data set [1], the IC50 was < 1 µM. On to `CCOC1(c2cccc(S(C)(=O)=O)c2)CCC(C(=O)O)(c2ccccc2)CC1` (stereo not shown) [Example 167], for which the IC50 in data set [1] was < 1 µM. As for `COc1ccc(-c2cc([C@]3(OCC4CC4)CC[C@@](C(=O)O)(c4ccccc4)CC3)n(CC3CC3)n2)cc1` [Example 319, Trans-4-Cyclopropylmethoxy-4-[2-cyclopropylmethyl-5-(4-methoxyphenyl)-2H-pyrazol-3-yl]-1-phenylcyclohexanecarboxylic Acid], the IC50 in data set [1] is < 1 µM. Consider `COC1(c2ccc(F)cc2)CCC(C(=O)O)(c2ccccc2OC(F)(F)F)CC1` (stereo not shown) [Example 238], for which, in data set [1], the IC50 is < 1 µM. In the case of `CCCOC1(c2ccc(F)cc2SC)CCC(C(=O)O)(c2ccc(F)cc2)CC1` (stereo not shown) [Example 242], the 50% inhibitory concentration (IC50) in data set [1] was < 1 µM.

Take `Cc1nc([C@]2(OCC3CC3)CC[C@](C(=O)O)(c3ccc(F)cc3)CC2)n(CC2CC2)c1C` [Example 365]: the IC50 in data set [1] was < 1 µM. Regarding `O=C(O)C1(c2ccccc2)CCC(OCC2CC2)(c2ccc(F)cc2)CC1` (stereo not shown) [Example 150], the IC50 in data set [1] was < 1 µM.

Regarding `O=C(O)[C@]1(c2ccccc2)CC[C@@](OCC2CC2)(c2nccn2CC2CC2)CC1` [Example 492, Cis-Cyclopropylmethoxy-4-(1-cyclopropylmethyl-1H-imidazol-2-yl)-1-phenylcyclohexanecarboxylic Acid], the IC50 in data set [1] is < 1 µM. Take `O=C(O)C1(c2ccccc2)CCC(O)(c2ccc(C(F)(F)F)cc2)CC1` (stereo not shown) [Example 101]: the IC50 in data set [1] is < 1 µM. Turning to `Cc1nc([C@]2(OCCC(C)C)CC[C@](C(=O)O)(c3ccc(F)cc3)CC2)n(CC2CC2)c1C` [Example 372], the IC50 in data set [1] is < 1 µM.

Take `Cc1nc([C@]2(OCCC(C)C)CC[C@](C(=O)O)(c3ccccc3)CC2)n(CC2CC2)c1Br` [Example 375]: in data set [1], the IC50 is < 1 µM. `O=C(O)[C@]1(c2ccccc2)CC[C@@](OCC2CC2)(c2nc3cc(F)ccc3n2CC2CC2)CC1` [Example 452]: in data set [1], the IC50 was < 1 µM. Still for that read-out and setting: the figure for `Cc1nc([C@]2(OCC3(C)COC3)CC[C@](C(=O)O)(c3ccccc3)CC2)n(CC2CC2)c1Cl` [Example 385] is < 1 µM; for `COC1(c2ccc(F)cc2)CCC(C(=O)O)(c2ccccc2)CC1` (stereo not shown) [Example 92, 4-(4-Fluorophenyl)-4-methoxy-1-phenylcyclohexanecarboxylic Acid] it is < 1 µM. On to `Cc1ccc([C@]2(C(=O)O)CC[C@](OCC3CC3)(c3nc4ccccc4n3CC3CC3)CC2)cc1` [Example 412], for which the IC50 in data set [1] was < 1 µM. Turning to `O=C(O)[C@]1(c2ccccc2)CC[C@@](OCC2CC2)(c2nc(C(F)(F)F)cn2CC2CC2)CC1` [Example 380], in data set [1], the IC50 was < 1 µM. For the compound `CS(=O)(=O)c1ccc(-c2nc([C@]3(Oc4ccccc4)CC[C@@](C(=O)O)(c4ccccc4)CC3)n(CC3CC3)n2)cc1` [Example 467], in data set [1], the IC50 is < 1 µM. For the compound `Cc1c(F)cc([C@]2(OCC3CC3)CC[C@](C(=O)O)(c3ccccc3)CC2)cc1S(C)(=O)=O` [Example 482, Cis-4-Cyclopropylmethoxy-4-(3-fluoro-5-methanesulfonyl-4-methylphenyl)-1-phenylcyclohexanecarboxylic Acid], in data set [1], the IC50 was < 1 µM. `O=C(O)[C@]1(c2ccc(F)cc2)CC[C@@](OCC2CC2)(c2cn(CC3CC3)c(-c3ccccc3)n2)CC1` gave a melting point of 198 °C. Regarding `Cc1nc([C@]2(OCCC(C)(C)C)CC[C@](C(=O)O)(c3ccccc3)CC2)n(C)c1Cl` [Example 392], in data set [1], the 50% inhibitory concentration (IC50) was < 1 µM.
